We go through 20 compounds from patent US10077261B2, “Imidazolin-5-one derivative useful as FASN inhibitors for the treatment of cancer” (Janssen Pharmaceutica NV, priority 2012, dated 2018).

Experiment [1] deals with A2780 ovarian cells. The experiment in a line: A2780 ovarian cell proliferation assay in lipid reduced medium, with palmitate (MTT). The format is cell-based. The note with it: Homo sapiens, A2780, 96 h; read-out: pIC50 A2780 Ovarian Cell, With Palmitate (converted). The method, then: (§1) The biological assays described below correspond to comparative assays for ovarian cell proliferation. […] Compounds active in the absence of palmitate would not be expected to be active in the control.
(§2) 2500 cells were seeded in a 96-well clear well plate in 200 μL RPMI1640 with 10% Fetal Calf Serum (Hyclone), and incubated at 37° C., 5% CO2. Blanks were wells without cells. The next day the culture medium was aspirated and replaced by 160 μL culture medium with 10% Lipid-Reduced Serum (LRS, Hyclone). 20 μL test compound (at concentrations of 30 μM, 10 μM, 3 μM, 1 μM, 0.30 μM, 0.10 μM, 0.03 μM and 0.01 μM)/DMSO dilution followed by 20 μL palmitate-BSA solution were added to a final concentrations of 0.2% DMSO, 25 μM palmitate (Sigma, P0500, 10 mM stock solution in ethanol) 0.2% fatty-acid-free BSA, 0.25% ethanol. After 96 h incubation, an MTT assay was performed. The absorbance was measured at 544 nm on a SPECTRAMAX brand microplate reader (Molecular Devices).
A best fit curve was fitted by a minimum sum of squares method, plotting Controlmin versus test compound concentration.
(§3) Representative compounds of the present invention were tested according to the procedure as described in Biological Example 3 above, with results as listed in Table 8, below.

The test system of experiment [2] is A2780 ovarian cells. The experiment in a line: A2780 ovarian cell proliferation assay in lipid reduced medium, without palmitate (MTT). The note with it: Homo sapiens, A2780, 96 h; read-out: pIC50 A2780 Ovarian Cell, Without Palmitate (converted). In kind it is cell-based. The method, then: as §1
as §2, with “ethanol-BSA” for “palmitate-BSA”, “DMSO,” for “DMSO, 25 μM palmitate (Sigma, P0500, 10 mM stock solution in ethanol)”, “incubation” for “incubation,”
where mLC and mHC were the means of the low control wells and high control wells on the plate, after manual exclusion of outliers. A plot of Controlmin versus test compound concentration was fitted to a 4-parameter logistic curve using a non-linear least squares regression method.
as §3

Experiment [3] has as its target T1, hFASN enzyme (full length) (Homo sapiens, UniProt P49327).
T1 construct: 10 μL hFASN enzyme (full length, 300 ng, purified in house); made in house
The experiment in a line: Fatty Acid Synthase (FASN) inhibition scintillation proximity assay. In kind it is biochemical. The note with it: for inhibition at 10 µM: read-out: Human FASN % inhibition @ 10 μM, 10 μM test compound; for IC50: read-out: Human FASN pIC50 (converted). The method in brief: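 Scintillation proximity format: in-house full-length enzyme, 300 ng per well, pH 7.5 phosphate/DTT buffer, ³H-acetyl-CoA and malonyl-CoA. Emission counted on LEADseeker at 610 nm at least 24 h after stopping.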
For orientation: SPA uses beads or plates that emit light when radiolabelled molecules are held near them.

T1 sequence (P49327 whole entry): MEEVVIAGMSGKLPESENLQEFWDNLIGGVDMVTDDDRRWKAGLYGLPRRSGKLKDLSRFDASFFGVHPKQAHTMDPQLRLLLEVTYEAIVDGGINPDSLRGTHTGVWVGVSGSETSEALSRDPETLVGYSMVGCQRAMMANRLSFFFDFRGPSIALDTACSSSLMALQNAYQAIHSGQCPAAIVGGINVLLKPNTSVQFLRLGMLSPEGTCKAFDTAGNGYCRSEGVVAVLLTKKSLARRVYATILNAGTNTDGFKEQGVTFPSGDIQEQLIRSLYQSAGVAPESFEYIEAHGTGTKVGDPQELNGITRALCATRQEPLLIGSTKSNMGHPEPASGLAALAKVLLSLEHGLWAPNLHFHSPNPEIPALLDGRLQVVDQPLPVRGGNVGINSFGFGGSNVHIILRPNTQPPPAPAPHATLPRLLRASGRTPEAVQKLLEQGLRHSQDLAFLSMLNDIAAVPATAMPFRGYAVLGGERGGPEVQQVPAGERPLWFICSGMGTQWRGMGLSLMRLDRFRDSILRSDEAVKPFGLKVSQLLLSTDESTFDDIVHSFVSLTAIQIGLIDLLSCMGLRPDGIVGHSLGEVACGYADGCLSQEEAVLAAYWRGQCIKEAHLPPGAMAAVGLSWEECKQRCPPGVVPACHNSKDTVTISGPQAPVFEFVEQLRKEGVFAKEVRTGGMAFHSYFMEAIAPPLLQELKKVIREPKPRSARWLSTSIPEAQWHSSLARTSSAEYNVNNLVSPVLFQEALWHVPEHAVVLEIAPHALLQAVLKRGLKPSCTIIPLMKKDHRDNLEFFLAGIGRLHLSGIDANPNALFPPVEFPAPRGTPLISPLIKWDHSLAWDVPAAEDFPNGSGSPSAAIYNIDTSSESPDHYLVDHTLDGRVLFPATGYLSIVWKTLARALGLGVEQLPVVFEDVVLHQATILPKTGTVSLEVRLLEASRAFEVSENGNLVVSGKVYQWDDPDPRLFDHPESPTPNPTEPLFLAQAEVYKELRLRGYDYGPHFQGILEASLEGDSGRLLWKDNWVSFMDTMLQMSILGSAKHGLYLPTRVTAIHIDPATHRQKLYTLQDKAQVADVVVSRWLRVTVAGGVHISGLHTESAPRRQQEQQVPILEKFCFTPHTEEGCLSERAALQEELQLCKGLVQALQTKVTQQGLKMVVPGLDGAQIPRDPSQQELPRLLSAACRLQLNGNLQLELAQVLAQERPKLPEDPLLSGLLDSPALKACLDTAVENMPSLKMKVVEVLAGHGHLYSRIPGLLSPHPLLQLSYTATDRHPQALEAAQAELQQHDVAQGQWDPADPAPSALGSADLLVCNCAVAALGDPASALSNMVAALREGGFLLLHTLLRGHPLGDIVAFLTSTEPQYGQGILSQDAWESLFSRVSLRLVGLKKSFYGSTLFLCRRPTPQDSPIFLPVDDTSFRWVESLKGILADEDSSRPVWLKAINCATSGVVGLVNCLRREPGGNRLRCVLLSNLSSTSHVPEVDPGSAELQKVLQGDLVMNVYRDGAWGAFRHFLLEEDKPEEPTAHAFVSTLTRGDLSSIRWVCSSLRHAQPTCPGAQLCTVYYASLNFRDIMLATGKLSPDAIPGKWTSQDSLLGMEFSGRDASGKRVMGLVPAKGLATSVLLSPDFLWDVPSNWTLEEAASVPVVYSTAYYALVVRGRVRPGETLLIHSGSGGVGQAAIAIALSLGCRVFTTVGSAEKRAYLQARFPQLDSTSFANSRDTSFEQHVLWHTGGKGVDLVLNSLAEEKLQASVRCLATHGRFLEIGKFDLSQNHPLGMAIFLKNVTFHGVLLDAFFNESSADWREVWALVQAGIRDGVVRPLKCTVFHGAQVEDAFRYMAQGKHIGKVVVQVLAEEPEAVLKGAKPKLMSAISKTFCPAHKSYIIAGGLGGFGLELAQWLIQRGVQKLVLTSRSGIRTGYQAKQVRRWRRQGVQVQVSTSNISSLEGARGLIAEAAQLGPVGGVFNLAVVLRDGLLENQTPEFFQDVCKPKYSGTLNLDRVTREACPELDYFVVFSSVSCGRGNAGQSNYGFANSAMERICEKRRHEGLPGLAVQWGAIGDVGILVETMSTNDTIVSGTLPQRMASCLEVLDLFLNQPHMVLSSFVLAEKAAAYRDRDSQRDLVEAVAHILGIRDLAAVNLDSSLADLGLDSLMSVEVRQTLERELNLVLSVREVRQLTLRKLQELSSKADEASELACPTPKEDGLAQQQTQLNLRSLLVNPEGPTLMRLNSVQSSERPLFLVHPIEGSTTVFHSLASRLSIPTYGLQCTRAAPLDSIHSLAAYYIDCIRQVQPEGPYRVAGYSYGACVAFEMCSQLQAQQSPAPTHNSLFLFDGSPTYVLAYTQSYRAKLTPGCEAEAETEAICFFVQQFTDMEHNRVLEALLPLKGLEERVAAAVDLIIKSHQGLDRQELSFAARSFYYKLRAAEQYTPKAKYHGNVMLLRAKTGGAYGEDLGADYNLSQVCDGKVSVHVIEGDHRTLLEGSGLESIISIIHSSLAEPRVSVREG

In the case of `Cn1ncc2cc(-c3ccc(C4=NC5(CC5)C(=O)N4CC4CCN(C(=O)C5CC5)CC4)cc3)ccc21` [compound 19, 6-{[1-(Cyclopropylcarbonyl)piperidin-4-yl]methyl}-5-[4-(1-methyl-1H-indazol-5-yl)phenyl]-4,6-diazaspiro[2.4]hept-4-en-7-one], the IC50 with A2780 ovarian cells [1] was more than 6.17 µM; in the experiment with A2780 ovarian cells [2], 4.68 µM.
With `Cn1ncc2cc(-c3ccc(C4=NC5(CC5)C(=O)N4C[C@@H]4CCN(C(=O)C5CC5)C4)cc3)ccc21` [compound 28, 6-{[(3R)-1-(Cyclopropylcarbonyl)pyrrolidin-3-yl]methyl}-5-[4-(1-methyl-1H-indazol-5-yl)phenyl]-4,6-diazaspiro[2.4]hept-4-en-7-one], the IC50 with A2780 ovarian cells [1] is more than 10 µM; in the experiment with A2780 ovarian cells [2] it was 0.132 µM.
In the same order, the values of `Cn1ncc2cc(-c3ccc(C4=NC5(CCCC5)C(=O)N4C[C@@H]4CCN(C(=O)C5CC5)C4)cc3)ccc21` [compound 35, 3-{[(3R)-1-(Cyclopropylcarbonyl)pyrrolidin-3-yl]methyl}-2-[4-(1-methyl-1H-indazol-5-yl)phenyl]-1,3-diazaspiro[4.4]non-1-en-4-one] are more than 10 µM and 0.479 µM.
In the same order, the values of `O=C(C1CC1)N1CC[C@@H](CN2C(=O)C3(CC3)N=C2c2ccc(-c3ccc4cnccc4c3)cc2)C1` [compound 47, 6-{[(3R)-1-(Cyclopropylcarbonyl)pyrrolidin-3-yl]methyl}-5-(4-isoquinolin-6-ylphenyl)-4,6-diazaspiro[2.4]hept-4-en-7-one] are more than 10 µM and 0.00776 µM.
Turning to `O=C(C1CC1)N1CC[C@@H](CN2C(=O)C3(CC3)N=C2c2ccc(-c3ccc4occc4c3)cc2)C1` [compound 58, (R)-5-(4-(Benzofuran-5-yl)phenyl)-6-((1-(cyclopropanecarbonyl)pyrrolidin-3-yl)methyl)-4,6-diazaspiro[2.4]hept-4-en-7-one], the IC50 in the experiment with A2780 ovarian cells [1] was more than 10 µM; with A2780 ovarian cells [2], 0.339 µM.
For `O=C(C1CC1)N1CC[C@@H](CN2C(=O)C3(CC3)N=C2c2ccc(-c3ccc4scnc4c3)cc2)C1` [compound 71, 5-[4-(1,3-Benzothiazol-5-yl)phenyl]-6-{[(3R)-1-(cyclopropylcarbonyl)pyrrolidin-3-yl]methyl}-4,6-diazaspiro[2.4]hept-4-en-7-one], in that order: more than 10 µM and 0.0363 µM.
Consider `O=C(C1CC1)N1CC[C@@H](CN2C(=O)C3(CC3)N=C2c2ccc(-c3cccc(Cl)c3)cc2)C1` [compound 112, 5-(3′-Chlorobiphenyl-4-yl)-6-{[(3R)-1-(cyclopropylcarbonyl)pyrrolidin-3-yl]methyl}-4,6-diazaspiro[2.4]hept-4-en-7-one], for which the IC50 is more than 10 µM in the experiment on A2780 ovarian cells [1] and 1.02 µM in the experiment on A2780 ovarian cells [2].
For `O=C(C1CC1)N1CC(CN2C(=O)C3(CC3)N=C2c2ccc(-c3ccc(-c4cnn(C5CCC5)c4)cc3)cc2F)C1` [compound 329, 5-(4′-(1-cyclobutyl-1H-pyrazol-4-yl)-3-fluoro-[1,1′-biphenyl]-4-yl)-6-((1-(cyclopropanecarbonyl)azetidin-3-yl)methyl)-4,6-diazaspiro[2.4]hept-4-en-7-one], in that order: 3.09 µM and 0.0141 µM.
For `Cc1cc(-c2ccc(-c3cnn(C4CCC4)c3)cc2)ccc1C1=NC2(CC2)C(=O)N1CC1CN(C(=O)C2CC2)C1` [compound 330, 5-(4′-(1-cyclobutyl-1H-pyrazol-4-yl)-3-methyl-[1,1′-biphenyl]-4-yl)-6-((1-(cyclopropanecarbonyl)azetidin-3-yl)methyl)4,6-diazaspiro[2.4]hept-4-en-7-one], in that order: approximately 6.17 µM and 0.0324 µM.
Turning to `O=C(C1CC1)N1CC[C@H](CN2C(=O)C3(CC3)N=C2c2ccc(-c3ccc4[nH]ncc4c3)cc2)C1` [compound 431, 6-{[(3S)-1-(Cyclopropylcarbonyl)pyrrolidin-3-yl]methyl}-5-[4-(1H-indazol-5-yl)phenyl]-4,6-diazaspiro[2.4]hept-4-en-7-one], the figures for the IC50 in the experiment with A2780 ovarian cells [1] and in the experiment on A2780 ovarian cells [2] were more than 10 µM and 0.204 µM, respectively.
For `Cc1cc(-c2ccc3c(c2)c(C#N)nn3C)ccc1C1=NC2(CC2)C(=O)N1CC1CN(C(=O)C2CC2)C1` [compound 836, 5-(4-(6-((1-(cyclopropanecarbonyl)azetidin-3-yl)methyl)-7-oxo-4,6-diazaspiro[2.4]hept-4-en-5-yl)-3-methylphenyl)-1-methyl-1H-indazole-3-carbonitrile], in that order: more than 3.02 µM and 0.372 µM.
Take `O=C(N1CC(CN2C(=O)C3(CC3)N=C2c2ccc(-c3ccc4c(cnn4CCO)c3)cc2F)C1)C1(O)CC1` [compound 837, 5-(2-fluoro-4-(1-(2-hydroxyethyl)-1H-indazol-5-yl)phenyl)-6-((1-(1-hydroxycyclopropanecarbonyl)azetidin-3-yl)methyl)-4,6-diazaspiro[2.4]hept-4-en-7-one]: the IC50 in the experiment with A2780 ovarian cells [1] was more than 3.02 µM; with A2780 ovarian cells [2], 1.23 µM.
Take `Cn1ncc2cc(-c3ccc(C4=NC5(CCOC5)C(=O)N4C[C@@H]4CCN(C(=O)C(F)(F)F)C4)cc3)ccc21` (stereo partly drawn) [compound 955, 2-(4-(1-methyl-1H-indazol-5-yl)phenyl)-3-(((R)-1-(2,2,2-trifluoroacetyl)pyrrolidin-3-yl)methyl)-7-oxa-1,3-diazaspiro[4.4]non-1-en-4-one]: in experiment [3], the inhibition at 10 µM amounted to 34% and the IC50 was more than 10 µM.
`COC(=O)N1CC2(C1)N=C(c1ccc(-c3ccc4occc4c3)cc1)N(C[C@@H]1CCN(S(C)(=O)=O)C1)C2=O` [compound 956, (S)-methyl 6-(4-(benzofuran-5-yl)phenyl)-7-((1-(methylsulfonyl)pyrrolidin-3-yl)methyl)-8-oxo-2,5,7-triazaspiro[3.4]oct-5-ene-2-carboxylate]: in experiment [3], the inhibition at 10 µM worked out at 8% and the IC50 is more than 10 µM.
Regarding `O=C(c1nccs1)N1CC[C@@H](CN2C(=O)C3(CCOCC3)N=C2c2ccc(-c3ccc4occc4c3)cc2)C1` [compound 958, (R)-2-(4-(benzofuran-5-yl)phenyl)-3-((1-(thiazole-2-carbonyl)pyrrolidin-3-yl)methyl)-8-oxa-1,3-diazaspiro[4.5]dec-1-en-4-one], in experiment [3], the inhibition at 10 µM is -6% and the IC50 was more than 10 µM.
For the compound `Cn1ncc2cc(-c3ccc(C4=NC5(CCOCC5)C(=O)N4C[C@@H]4CCN(C(=O)c5nccs5)C4)cc3)ccc21` [compound 959, (R)-2-(4-(1-methyl-1H-indazol-5-yl)phenyl)-3-((1-(thiazole-2-carbonyl)pyrrolidin-3-yl)methyl)-8-oxa-1,3-diazaspiro[4.5]dec-1-en-4-one], in experiment [3], the inhibition at 10 µM is -7% and the IC50 is more than 10 µM.
For `CS(=O)(=O)N1CC[C@@H](CN2C(=O)C3(CCOCC3)N=C2c2ccc(-c3ccc4cccnc4c3)cc2)C1` [compound 960], in that order: -2% and more than 10 µM.
In the case of `O=C(N1CC(CN2C(=O)C3(CCOCC3)N=C2c2ccc(-c3ccc4occc4c3)cc2)C1)C(F)(F)F` [compound 961, 2-(4-(benzofuran-5-yl)phenyl)-3-((1-(2,2,2-trifluoroacetyl)azetidin-3-yl)methyl)-8-oxa-1,3-diazaspiro[4.5]dec-1-en-4-one], in experiment [3], the inhibition at 10 µM stood at 7% and the IC50 was more than 10 µM.
Turning to `COC(=O)N1CC2(C1)N=C(c1ccc(-c3ccc4cccnc4c3)cc1)N(C[C@@H]1CCN(C(=O)c3nccs3)C1)C2=O` [compound 962, (R)-methyl 8-oxo-6-(4-(quinolin-7-yl)phenyl)-7-((1-(thiazole-2-carbonyl)pyrrolidin-3-yl)methyl)-2,5,7-triazaspiro[3.4]oct-5-ene-2-carboxylate], in experiment [3], the inhibition at 10 µM worked out at 43% and the IC50 was more than 10 µM.
For `Cn1ncc2cc(-c3ccc(C4=NC5(CCN(C(=O)C(F)(F)F)CC5)C(=O)N4CC4CN(C(=O)C5CC5)C4)cc3)ccc21` [compound 964, 3-((1-(cyclopropanecarbonyl)azetidin-3-yl)methyl)-2-(4-(1-methyl-1H-indazol-5-yl)phenyl)-8-(2,2,2,-trifluoroacetyl)-1,3,8-triazaspiro[4.5]dec-1-en-4-one], in that order: 41% and approximately 11 µM.

The term inhibition denotes the change of the read-out against control, counted positive when it falls.
